This note sets out measurements from patent US20220402867A1, “SULFO-SUBSTITUTED BIARYL COMPOUND OR SALT THEREOF, PREPARATION METHOD THEREFOR, AND USE THEREOF” (Shanghai Litedd Co., Ltd., priority 2019, published 2022).

In one data set the test system is human PBMC (Th17 cells). As to the kind of experiment: Th17 differentiation and IL-17 secretion in human PBMC. It counts as cell-based. As to conditions: IL-17 ELISA after 48 hours; for Emax: maximum activation rate.
The nature of data set [1]: Metabolic stability in human liver microsomes. Format: in vitro ADME. As to conditions: for microsomal CLint: 0.5 mg protein/mL. In a few lines:
(§1)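 Compound incubated at 37 °C with 0.5 mg protein/mL liver microsomes plus cofactors in PBS, sampled at 0–60 min, quenched with cold acetonitrile and quantified by HPLC-MS/MS (n=3). Half-life and Clint (μL/min/mg) come from the slope of ln(% remaining) versus time.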
(In general: Microsomes from liver hold many membrane-bound enzymes, among them those of drug oxidation.)

Data set [2] in a line: Metabolic stability in mouse liver microsomes. The following applies: for half-life: CD-1; for microsomal CLint: CD-1, 0.5 mg protein/mL. Format: in vitro ADME, CD-1 mice. The method, boiled down: as §1
For data set [3], the system named is mouse spleen lymphocytes (Th17 cells). As to the kind of experiment: Th17 differentiation and IL-17 secretion in mouse lymphocytes. It counts as cell-based. The following applies: Lymphocyte, IL-17 ELISA after 48 hours; for Emax: maximum activation rate. Here is the method: Test procedure: the mouse spleen lymphocytes were first isolated, and the lymphocytes were subject to the conditions of stimulating factors (anti-mCD28: 5 μg/mL; rmTGF-β1: 1 ng/mL; rmIL-6: 50 ng/mL; rmIL-23: 5 ng/mL) and differentiated to Th17, while adding different concentrations of compounds. All test compounds were serially diluted at 3-fold dilution with DMSO, with 8 serial dilutions starting from the maximum concentration 3 μM. The supernatants were collected after 48 hours for IL-17 ELISA detection, and compared with the solvent group, to determine the activation rate of the compounds on Th17 cells to secrete IL-17. EC50 values were fitted with Graphad 8.0, and the TOP values fitted by the software was Emax %.
A general note: An ELISA detects its analyte on a solid surface through an enzyme-linked reagent.

By EC50 is commonly meant the concentration that produces a half-maximal response. A low value points to higher potency in that assay. A word on the Emax: it is the greatest response seen or fitted, relative to the assay's reference. Broadly, the half-life is how long it takes for the measured level to halve. For orientation: microsomal CLint means a measure of how fast metabolising enzymes remove a compound, apart from limits set by blood flow. Low values mean slow turnover, high ones rapid turnover. Turning to `COCC(C(=O)Nc1ccc(-c2ccc(S(=O)(=O)C3CC3)cc2)c(C(F)(F)F)c1)c1ccc(S(C)(=O)=O)cc1` (single isomer, unassigned) [Example 43, (S)—N-(4′-(cyclopropylsulfonyl)-2-(trifluoromethyl)-[1,1′-biphenyl]-4-yl)-3-methoxy-2-(4-(methylsulfonyl)phenyl)propionamide or (R)—N-(4′-(cyclopropylsulfonyl)-2-(trifluoromethyl)-[1,1′-biphenyl]-4-yl)-3-methoxy-2-(4-(methylsulfonyl)phenyl)propanamide], in the data set on human PBMC (Th17 cells), the EC50 stood at 135 nM and the maximum response (Emax) came out at 265%. Also, in data set [1], the half-life was 1.68 h, the intrinsic metabolic clearance (microsomal CLint) was found to be 13.8 µL/min/mg and the “% Remaining (T = 60 min)” value worked out at 69%. Besides, in data set [2], the “% Remaining (T = 60 min)” value was 64.4%, the half-life turned out to be 1.56 h and the microsomal CLint was 14.8 µL/min/mg.
In the data set on human PBMC (Th17 cells), `CCS(=O)(=O)c1ccc(CC(=O)Nc2cc(Cl)c(-c3ccc(S(C)(=O)=O)cc3)c(Cl)c2)cc1` [Example 2, N-(2,6-dichloro-4′-(methylsulfonyl)-[1,1′-biphenyl]-4-yl)-2-(4-(ethylsulfonyl)phenyl)acetamide] yielded a concentration giving a half-maximal response (EC50) of 61.6 nM and an Emax of 138%. Also, in data set [3], it took 114 nM to reach a half-maximal effect (EC50) and the Emax came to 203%. Also, in data set [1], the half-life was over 2.42 h, the intrinsic metabolic clearance (microsomal CLint) is under 9.6 µL/min/mg and the “% Remaining (T = 60 min)” value amounted to 75.7%. In data set [2], the “% Remaining (T = 60 min)” value is recorded as 89.30%, the half-life was over 2.42 h and the intrinsic metabolic clearance (microsomal CLint) was under 9.6 µL/min/mg.
Regarding `CCS(=O)(=O)c1ccc(-c2c(Cl)cc(NC(=O)Cc3ccc(S(C)(=O)=O)cc3)cc2Cl)cc1` [Example 4, N-(2,6-Dichloro-4′-(ethylsulfonyl)-[1,1′-biphenyl]-4-yl)-2-(4-(methylsulfonyl)phenyl)acetamide], in the data set with human PBMC (Th17 cells), the concentration for a half-maximal effect (EC50) was determined as 30.4 nM and the maximum response (Emax) was determined as 152%. In data set [3], the 50% effective concentration (EC50) turned out to be 112 nM and the Emax was 156%. Also, in data set [1], the half-life was over 2.42 h, the intrinsic clearance (microsomal CLint) was under 9.6 µL/min/mg and the “% Remaining (T = 60 min)” value is reported as 83.4%. Moreover, in data set [2], the “% Remaining (T = 60 min)” value is 22.20% and the half-life was found to be 0.47 h.
In the data set on human PBMC (Th17 cells), `CCS(=O)(=O)c1ccc(-c2c(Cl)cc(NC(=O)Cc3ccc(S(=O)(=O)CC)cn3)cc2Cl)cc1` [Example 5, N-(2,6-Dichloro-4′-(ethylsulfonyl)-[1,1′-biphenyl]-4-yl)-2-(5-(ethylsulfonyl)pyridin-2-yl)acetamide] yielded a half-maximal effective concentration (EC50) of 33.2 nM and an Emax of 123%. In data set [3], it took 11.4 nM to reach a half-maximal effect (EC50) and the maximal response (Emax) was 147%. In data set [1], the half-life was over 2.42 h, the microsomal CLint is under 9.6 µL/min/mg and the “% Remaining (T = 60 min)” value was 76.7%. Further, in data set [2], the “% Remaining (T = 60 min)” value was 35.50% and the half-life came to 0.707 h.
As for `CCS(=O)(=O)c1ccc(CC(=O)Nc2cc(Cl)c(-c3ccc(S(C)(=O)=O)cc3)c(Cl)c2)nc1` [Example 8, N-(2,6-Dichloro-4′-(methylsulfonyl)-[1,1′-biphenyl]-4-yl)-2-(5-(ethylsulfonyl)pyridin-2-yl)acetamide], in the data set on human PBMC (Th17 cells), the midpoint of the response, the EC50, lay at 347 nM and the Emax came out at 129%. Further, in data set [3], the midpoint of the response, the EC50, lay at 370 nM and the Emax was found to be 85%. Also, in data set [1], the half-life is over 2.42 h, the intrinsic clearance (microsomal CLint) is under 9.6 µL/min/mg and the “% Remaining (T = 60 min)” value is on record as 95.6%. Also, in data set [2], the “% Remaining (T = 60 min)” value is on record as 107.80%, the half-life was over 2.42 h and the microsomal CLint is under 9.6 µL/min/mg.
For the compound `CCS(=O)(=O)c1ccc(-c2c(Cl)cc(NC(=O)Cc3ccc(S(C)(=O)=O)cn3)cc2Cl)cc1` [Example 9, N-(2,6-Dichloro-4′-(ethylsulfonyl)-[1,1′-biphenyl]-4-yl)-2-(5-(methylsulfonyl)pyridin-2-yl)acetamide], in the data set with human PBMC (Th17 cells), it took 360 nM to reach a half-maximal effect (EC50) and the maximal effect (Emax) came out at 167%. In data set [3], this compound returned an EC50 of 943 nM and an Emax of 65.4%. Further, in data set [1], the half-life was over 2.42 h, the intrinsic metabolic clearance (microsomal CLint) is under 9.6 µL/min/mg and the “% Remaining (T = 60 min)” value is on record as 102.5%. Further, in data set [2], the “% Remaining (T = 60 min)” value is 64.20% and the half-life worked out at 1.64 h.
With `CS(=O)(=O)c1ccc(CC(=O)Nc2cc(Cl)c(-c3ccc(S(=O)(=O)C4CC4)cc3)c(Cl)c2)cc1` [Example 11, N-(2,6-Dichloro-4′-(cyclopropylsulfonyl)-[1,1′-biphenyl]-4-yl)-2-(4-(methylsulfonyl)phenyl)acetamide], in the data set on human PBMC (Th17 cells), the concentration giving a half-maximal response (EC50) worked out at 52.8 nM and the maximal effect (Emax) amounted to 149%. Besides, in data set [3], the concentration for a half-maximal effect (EC50) is 318 nM and the maximal response (Emax) was found to be 123%. Also, in data set [1], the half-life was over 2.42 h, the microsomal CLint is under 9.6 µL/min/mg and the “% Remaining (T = 60 min)” value was determined as 110.5%. Besides, in data set [2], the “% Remaining (T = 60 min)” value amounted to 97.10%, the half-life is over 2.42 h and the intrinsic metabolic clearance (microsomal CLint) was under 9.6 µL/min/mg.
Take `CCS(=O)(=O)c1ccc(-c2c(Cl)cc(NC(=O)C(COC)c3ccc(S(=O)(=O)CC)cc3)cc2Cl)cc1` (centres unmarked) [Example 13, N-(2,6-Dichloro-4′-(ethylsulfonyl)-[1,1′-biphenyl]-4-yl)-2-(4-(ethylsulfonyl)phenyl)-3-methoxypropionamide]: in the data set with human PBMC (Th17 cells), the concentration giving a half-maximal response (EC50) came to 6.2 nM and the Emax came to 139%. In data set [3], this compound registered an EC50 of 5.7 nM and an Emax of 134%. In data set [1], the half-life worked out at 2.07 h and the “% Remaining (T = 60 min)” value was 71.4%. In data set [2], the “% Remaining (T = 60 min)” value stood at 28% and the half-life was found to be 0.543 h.
As to `CCS(=O)(=O)c1ccc(C(COC)C(=O)Nc2cc(Cl)c(-c3ccc(S(=O)(=O)C4CC4)cc3)c(Cl)c2)cc1` (centres unmarked) [Example 16, N-(2,6-Dichloro-4′-(cyclopropylsulfonyl)-[1,1′-biphenyl]-4-yl)-2-(4-(ethylsulfonyl)phenyl)-3-methoxypropionamide], in the data set on human PBMC (Th17 cells), a half-maximal effect (EC50) was put at 27.3 nM and the Emax turned out to be 202%. Besides, in data set [1], the half-life was over 2.42 h, the microsomal CLint is under 9.6 µL/min/mg and the “% Remaining (T = 60 min)” value came out at 100.7%. In data set [2], the “% Remaining (T = 60 min)” value amounted to 68.90%, the half-life was 2.24 h and the intrinsic metabolic clearance (microsomal CLint) is 10.7 µL/min/mg.
`COCC(C(=O)Nc1cc(Cl)c(-c2ccc(S(=O)(=O)C3CC3)cc2)c(Cl)c1)c1ccc(S(C)(=O)=O)cc1` (centres unmarked) [Example 20, N-(2,6-Dichloro-4′-(cyclopropylsulfonyl)-[1,1′-biphenyl]-4-yl)-3-methoxy-2-(4-(methylsulfonyl)phenyl)propionamide]: in the data set with human PBMC (Th17 cells), a half-maximal effect (EC50) was put at 18.9 nM and the Emax came to 228%. In addition, in data set [1], the half-life came out at 1.34 h, the microsomal CLint came out at 17.3 µL/min/mg and the “% Remaining (T = 60 min)” value is 53.9%. In data set [2], the “% Remaining (T = 60 min)” value is recorded as 75.50%, the half-life was determined as 2.21 h and the microsomal CLint amounted to 10.5 µL/min/mg.
